In patent US12606541B2, “PPARg modulators and methods of use” (Eisai R&D Management Co., Ltd., priority 2020, dated 2026):
Like-named read-outs stand apart in the source and are kept apart here.

Tests used:
[1] = target: T1, His6-TEV-PPARγ-(234-505) (Homo sapiens, UniProt P37231); test: TR-FRET Assay to Measure Co-R Peptide Recruitment to PPARγ; assay type: biochemical; conditions: Co-R peptide (SMRT-ID2) recruitment, top final concentration 20 μM, read-out: TR-FRET i-Ag, AC50
T1 construct: The His6-TEV-PPARγ-(234-505) protein for assay was expressed and purified; TEV cleavage site (N); made in house
T1 sequence (P37231 234-505): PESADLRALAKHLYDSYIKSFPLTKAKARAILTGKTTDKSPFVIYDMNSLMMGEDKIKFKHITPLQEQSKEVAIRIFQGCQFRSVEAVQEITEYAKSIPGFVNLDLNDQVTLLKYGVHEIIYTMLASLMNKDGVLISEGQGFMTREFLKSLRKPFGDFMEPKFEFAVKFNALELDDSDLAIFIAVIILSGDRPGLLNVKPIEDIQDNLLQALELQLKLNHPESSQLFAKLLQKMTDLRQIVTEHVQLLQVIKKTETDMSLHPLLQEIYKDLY
Summary of the method: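 Corepressor recruitment is measured by adding terbium-labeled anti-His antibody and FITC SMRT-ID2 peptide, at 5 and 200 nM final, after a 20-minute room-temperature protein–compound incubation. After one further hour, signal is converted to percent response between DMSO and 500 nM T0070907 wells.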

[2] = tested on: UM-UC-9 engineered cells; test: Cell proliferation / short-term viability assay, CellTiter-Glo 144 h; assay type: cell-based, human; conditions: read-out: CTGlo 144 h UMUC9.5, G150
Summary of the method: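 Viability read by CellTiter-Glo 2.0 luminescence at day 7 versus DMSO-vehicle wells and a T0 plate measured on day 0. Cells: UM-UC-9 engineered assay-ready stocks, 500 cells/well in high-glucose DMEM with 10% FBS, 37° C, 5% CO2.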

SMILES	AC50 [1] [µM]	IC50 ([2]; Homo sapiens, UM-UC-9, 144 h) [µM]	also measured
COc1cc(-c2cc(C(=O)N3CCC(C(=O)NC4CS(=O)(=O)N(C)c5ccccc54)CC3)n[nH]2)c(Cl)cn1 (racemic) [Example 231, 1-(5-(5-chloro-2-methoxypyridin-4-yl)-1H-pyrazole-3-carbonyl)-N-(1-methyl-2,2-dioxido-3,4-dihydro-1H-benzo[c][1,2]thiazin-4-yl)piperidine-4-carboxamide]	0.999	5.44	
COc1cc(-c2cc(C(=O)N3CCC(C(=O)NC4CCCc5c4ccc(=O)n5C)CC3)n[nH]2)c(Cl)cn1 (racemic) [Example 234, 1-(5-(5-chloro-2-methoxypyridin-4-yl)-1H-pyrazole-3-carbonyl)-N-(1-methyl-2-oxo-1,2,5,6,7,8-hexahydroquinolin-5-yl)piperidine-4-carboxamide]	0.927	> 10	
COc1cc(-c2cc(C(=O)N3CCC(C(=O)NC4CCOc5ncccc54)CC3)n[nH]2)c(Cl)cn1 (racemic) [Example 236, 1-(5-(5-chloro-2-methoxypyridin-4-yl)-1H-pyrazole-3-carbonyl)-N (3,4-dihydro-2H-pyrano[2,3-b]pyridin-4-yl)piperidine-4-carboxamide]	0.466	5.36	
COc1cc(-c2cc(C(=O)N3CCC(C(=O)NC4C(=O)N(C)Cc5ccccc54)CC3)n[nH]2)c(Cl)cn1 (racemic) [Example 240, 1-(5-(5-chloro-2-methoxypyridin-4-yl)-1H-pyrazole-3-carbonyl)-N-(2-methyl-3-oxo-1,2,3,4-tetrahydroisoquinolin-4-yl)piperidine-4-carboxamide]	0.708	6.05	
COc1cc(-c2cc(C(=O)N3CCC(C(=O)NC4C(=O)NCc5ccccc54)CC3)n[nH]2)c(Cl)cn1 (racemic) [Example 244, 1-(5-(5-chloro-2-methoxypyridin-4-yl)-1H-pyrazole-3-carbonyl)-N-(3-oxo-1,2,3,4-tetrahydroisoquinolin-4-yl)piperidine-4-carboxamide]	0.605	5.56	
COc1cc(-c2cc(C(=O)N3CCC(C(=O)NC4CCN(c5ccc(F)cc5)C4)CC3)n[nH]2)c(Cl)cn1 (racemic) [Example 253, 1-(5-(5-chloro-2-methoxypyridin-4-yl)-1H-pyrazole-3-carbonyl)-N-(1-(4-fluorophenyl)pyrrolidin-3-yl)piperidine-4-carboxamide]	0.051	0.387	
COc1cc(-c2cc(C(=O)N3CCC(C(=O)NCc4cccc(Cl)c4)CC3(C)C)n[nH]2)c(Cl)cn1 (racemic) [Example 255]	0.0633	0.151	
COc1cc(-c2cc(C(=O)N3CCC(C(=O)NC(C)c4ccc5[nH]nc(C)c5c4)CC3)n[nH]2)c(F)cn1 (racemic) [Example 281, 1-(5-(5-fluoro-2-methoxypyridin-4-yl)-1H-pyrazole-3-carbonyl)-N-(1-(3-methyl-1H-indazol-5-yl)ethyl)piperidine-4-carboxamide]	0.101	0.632	
COc1cc(-c2cc(C(=O)N3[C@@H]4CC[C@H]3C[C@H](C(=O)NC3CCC(O)(C(F)(F)C(F)(F)F)CC3)C4)n[nH]2)c(F)cn1 (mixture of isomers) [Example 301, (1R,3s,5S)-8-(5-(5-fluoro-2-methoxypyridin-, 1-yl)-1H-pyrazole-3-carbonyl)-N-(4-hydroxy-4-(perfluoroethyl)cyclohexyl)-8-azabicyclo[3.2.1]octane-3-carboxamide]	0.0159	0.0748	
COc1cc(-c2cc(C(=O)N3CCC(C(=O)Nc4c(F)ccc5ccnn45)CC34CC4)n[nH]2)c(F)cn1 (racemic) [Example 468, (R)-4-(5-(5-fluoro-2-methoxypyridin-4-yl)-1H-pyrazole-3-carbonyl)-N-(6-fluoropyrazolo[1,5-a]pyridin-7-yl)-4-azaspiro[2.5]octane-7-carboxamide and (S)-4-(5-(5-fluoro-2-methoxypyridin-4-yl)-1H-pyrazole-3-carbonyl)-N-(6-fluoropyrazolo[1,5-a]pyridin-7-yl)-4-azaspiro[2.5]octane-7-carboxamide]	0.0083		IC50 [2]: 0.08 µM
O=C(NCc1ncc(F)cc1Cl)C1CCN(C(=O)c2cc(-c3cc(C4CC4)ncc3F)[nH]n2)C2(CC2)C1 (racemic) [Example 480, (S)—N-((3-chloro-5-fluoropyridin-2-yl)methyl)-4-(5-(2-cyclopropyl-5-fluoropyridin-4-yl)-1H-pyrazole-3-carbonyl)-4-azaspiro[2.5]octane-7-carboxamide and (R)—N-((3-chloro-5-fluoropyridin-2-yl)methyl)-4-(5-(2-cyclopropyl-5-fluoropyridin-4-yl)-1H-pyrazole-3-carbonyl)-4-azaspiro[2.5]octane-7-carboxamide]	0.0176		IC50 [2]: 0.371 µM
CCc1cc(-c2cc(C(=O)N3CCC(C(=O)NCc4ncc(F)cc4Cl)CC34CC4)n[nH]2)c(F)cn1 (racemic) [Example 483, (S)—N-((3-chloro-5-fluoropyridin-2-yl)methyl)-4-(5-(2-ethyl-5-fluoropyridin-4-yl)-1H-pyrazole-3-carbonyl)-4-azaspiro[2.5]octane-7-carboxamide and (R)—N-((3-chloro-5-fluoropyridin-2-yl)methyl)-4-(5-(2-ethyl-5-fluoropyridin-4-yl)-1H-pyrazole-3-carbonyl)-4-azaspiro[2.5]octane-7-carboxamide]	0.0062		IC50 [2]: 0.0445 µM
COc1cnc(CNC(=O)C2CCN(C(=O)c3cc(-c4cc(C)ncc4F)[nH]n3)C3(CC3)C2)c(Cl)c1 (racemic) [Example 484, (S)—N-((3-chloro-5-methoxypyridin-2-yl)methyl)-4-(5-(5-fluoro-2-methylpyridin-4-yl)-1H-pyrazole-3-carbonyl)-4-azaspiro[2.5]octane-7-carboxamide and (R)—N-((3-chloro-5-methoxypyridin-2-yl)methyl)-4-(5-(5-fluoro-2-methylpyridin-4-yl)-1H-pyrazole-3-carbonyl)-4-azaspiro[2.5]octane-7-carboxamide]	0.0038		IC50 [2]: 0.0205 µM
COc1cc(-c2cc(C(=O)N3CC[C@H](C(=O)N[C@H]4CC[C@@](O)(C(F)(F)F)CC4)CC34CCC4)n[nH]2)c(F)cn1 (racemic) [Example 486, (S)-5-(5-(5-fluoro-2-methoxypyridin-4-yl)-1H-pyrazole-3-carbonyl)-N-((1r,4S)-4-hydroxy-4-(trifluoromethyl)cyclohexyl)-5-azaspiro[3.5]nonane-8-carboxamide and (R)-5-(5-(5-fluoro-2-methoxypyridin-4-yl)-1H-pyrazole-3-carbonyl)-N-((1r,4R)-4-hydroxy-4-(trifluoromethyl)cyclohexyl)-5-azaspiro[3.5]nonane-8-carboxamide]	0.0052	0.0445	
Cc1cc(-c2cc(C(=O)N3CC[C@H](C(=O)NCc4ncccc4C4CC4)CC34CC4)[nH]n2)c(F)cn1 (racemic) [Example 506, (S)—N-((3-cyclopropylpyridin-2-yl)methyl)-4-(3-(5-fluoro-2-methylpyridin-4-yl)-1H-pyrazole-5-carbonyl)-4-azaspiro[2.5]octane-7-carboxamide and (R)—N-((3-cyclopropylpyridin-2-yl)methyl)-4-(3-(5-fluoro-2-methylpyridin-4-yl)-1H-pyrazole-5-carbonyl)-4-azaspiro[2.5]octane-7-carboxamide]	0.0103	0.0206	
N#Cc1cc(-c2cc(C(=O)N3CCC(C(=O)NC4CCC(O)(C(F)(F)F)CC4)CC34CC4)n[nH]2)ncn1 (racemic) [Example 528, (R)-4-(5-(6-cyanopyrimidin-4-yl)-1H-pyrazole-3-carbonyl)-N-((1r,4R)-4-hydroxy-4-(trifluoromethyl)cyclohexyl)-4-azaspiro[2.5]octane-7-carboxamide and (S)-4-(5-(6-cyanopyrimidin-4-yl)-1H-pyrazole-3-carbonyl)-N-((1r,4S)-4-hydroxy-4-(trifluoromethyl)cyclohexyl)-4-azaspiro[2.5]octane-7-carboxamide]	0.006		IC50 [2]: 0.479 µM
COc1cc(-c2cc(C(=O)N3CCC(C(=O)NC4CCC(C)CC4)CC3)n[nH]2)c(Cl)cn1 (single isomer, unassigned) [Example 101-B]	0.0092		IC50 ([2]; listed as 101b): 0.084 µM
CC[C@H]1CC[C@@H](NC(=O)C2CCN(C(=O)c3cc(-c4ccnc(OC)c4)[nH]n3)CC2)CC1 (single isomer, unassigned) [Example 108-A, N-((1s,4s)-4-ethylcyclohexyl)-1-(5-(2-methoxypyridin-4-yl)-1H-pyrazole-3-carbonyl)piperidine-4-carboxamide]	0.16	0.674	
COc1cc(-c2[nH]nc(C(=O)N3CCC(C(=O)NC4CCC(C)CC4)CC3)c2Cl)ccn1 (single isomer, unassigned) [Example 110-A]			AC50 ([1]; listed as 110a): 2.16 µM; IC50 ([2]; listed as 110a): 3.19 µM
